Reference: patent publication US8383853B2, “Method for preparing 2,6-diethyl-4-methylphenylacetic acid” (Bayer Cropscience AG, priority 2004, dated 2013)

Key:
Format in all cases: in vivo
Summer wheat = assay: Container trials with cereal, post-emergence, without or with safener; details: crop damage, 28 days after application
Experimental: (§1) Seeds of monocotyledonous and dicotyledonous weed and crop plants are placed into sandy loam in wood fiber pots or in plastic pots, covered with soil and cultivated in a greenhouse, during the vegetation period also outdoors outside of the greenhouse, under good growth conditions. Two-three weeks after sowing, the test plants are treated at the one- to three-leaf stage. The test compounds, formulated as wettable powders (WP) or liquid (EC) are, in various dosages with a water application rate of […] (converted), with wetting agent (0.2 to 0.3%) added, sprayed onto the plants and the surface of the soil. Three-four weeks after the treatment of the test plants, the effect of the preparations is rated visually in comparison to untreated controls (herbicidal effect in percent (%): 100% effect=the plants have died, 0% effect=like control plants).
(§2) If it is additionally to be tested as to whether safeners can improve the plant compatibility of test substances in the case of crop plants, the following options are used for applying the safener: • seeds of the crop plants are, before sowing, dressed with the safener substance (the amount of safener stated in percent, based on the weight of the seed) • before the application of the test substances, the crop plants are sprayed with the safener at a certain application rate per hectare (usually 1 day before the application of the test substances) • the safener is applied together with the test substance as a tank mix (the amount of safener is stated in g/ha or as a ratio, based on the herbicide).
(§3) By comparing the effect of the test substances on crop plants without or with safener treatment, it is possible to assess the effect of the safener substance.

Summer barley = assay: as above; details: crop damage
Experimental: as §1, §2, §3

Alopecurus [1] = assay: Herbicidal post-emergence action; details: greenhouse, 80 g of a.i./ha
Experimental: (§4) Seeds of monocotyledonous and dicotyledonous weed and crop plants are placed into sandy loam in wood fiber pots, covered with soil and cultivated in a greenhouse under good growth conditions. Two-three weeks after sowing, the test plants are treated at the one-leaf stage. The test compounds, formulated as wettable powders (WP), are then, in various dosages with a water application rate of 600 l/ha (converted), with 0.2% of wetting agent added, sprayed onto the green parts of the plants. After the test plants have been kept in the greenhouse under optimum growth conditions for about 3 weeks, the effect of the preparations is rated visually in comparison to untreated controls (herbicidal effect in percent (%): 100% effect=the plants have died, 0% effect=like control plants).

Setaria viridis [2] = assay: Herbicidal post-emergence action; details: greenhouse, 80 g of a.i./ha
Experimental: as §4

Echinochloa crus-galli = assay: Herbicidal post-emergence action; details: greenhouse, 80 g of a.i./ha
Experimental: as §4

Veronica [3] = assay: Herbicidal post-emergence action; details: greenhouse, 80 g of a.i./ha
Experimental: as §4

Lolium multiflorum [4] = assay: Herbicidal post-emergence action; details: greenhouse, 80 g of a.i./ha
Experimental: as §4

Echinochloa = assay: Herbicidal pre-emergence action; details: greenhouse, 80 g of a.i./ha
From the text: (§5) Seeds of monocotyledonous and dicotyledonous weed and crop plants are placed in sandy loam in wood fiber pots and covered with soil. The test compounds, formulated in the form of wettable powders (WP), are then, as an aqueous suspension with a water application rate of 600 l/ha (converted), with 0.2% of wetting agent added, applied to the surface of the covering soil in various dosages.
(§6) After the treatment, the pots are placed in a greenhouse and kept under good growth conditions for the test plants. The visual assessment of the emergence damage on the test plants is carried out after a trial period of 3 weeks by comparison with untreated controls (herbicidal effect in percent (%): 100% effect=the plants have died, 0% effect=like control plants).

Alopecurus [5] = assay: Herbicidal pre-emergence action; details: greenhouse
From the text: as §5, §6

Setaria viridis [6] = assay: Herbicidal pre-emergence action; details: greenhouse
From the text: as §5, §6

Lolium multiflorum [7] = assay: Herbicidal pre-emergence action; details: greenhouse
From the text: as §5, §6

Avena fatua [8] = assay: Herbicidal post-emergence action; details: greenhouse, 80 g of a.i./ha
Experimental: as §4

Avena fatua [9] = assay: Herbicidal pre-emergence action; details: greenhouse
From the text: as §5, §6

Veronica [10] = assay: Herbicidal pre-emergence action; details: greenhouse, 320 g of a.i./ha
From the text: as §5, §6

Meloidogyne incognita = assay: Meloidogyne test (spray treatment); details: 20 ppm of a.i., after 14 d
Experimental: To produce a suitable preparation of active compound, 1 part by weight of active compound is mixed with the stated amounts of solvent, and the concentrate is diluted with water to the desired concentration.
Vessels are filled with sand, solution of active compound, Meloidogyne incognita egg/larva suspension and lettuce seeds. The lettuce seeds germinate and the plants develop. On the roots, galls are formed.
After the desired period of time, the nematicidal activity is determined in % by the formation of galls. 100% means that no galls have been found; 0% means that the number of galls on the treated plants corresponds to that of the untreated control.

[11] = greenhouse, post-emergence, 12.5 g of a.i./ha
[12] = greenhouse, post-emergence, 25 g of a.i./ha

| SMILES | Summer wheat observed (%) (Summer wheat; 12.5 g of a.i./ha) | Summer wheat observed (%) (Summer wheat; 25 g of a.i./ha) | herbicidal effect, Alopecurus (Alopecurus [1]) | herbicidal effect, Setaria (Setaria viridis [2]) | herbicidal effect, Echinochloa (Echinochloa crus-galli) | herbicidal effect, Veronica (Veronica [3]) | herbicidal effect, Lolium (Lolium multiflorum [4]) | herbicidal effect, Echinochloa (Echinochloa) | herbicidal effect, Alopecurus (Alopecurus [5]; 80 g of a.i./ha) | herbicidal effect, Setaria (Setaria viridis [6]; 80 g of a.i./ha) | herbicidal effect, Lolium (Lolium multiflorum [7]; 80 g of a.i./ha) | herbicidal effect, Avena fatua (Avena fatua [8]) | Summer barley observed (%) (Summer barley; [11]) | Summer barley observed (%) (Summer barley; [12]) | further results |
| --- | --- | --- | --- | --- | --- | --- | --- | --- | --- | --- | --- | --- | --- | --- | --- |
| CCOC1CCC2(CC1)NC(=O)C(c1c(CC)cc(C)cc1CC)=C2O (single isomer, unassigned) [I-a-2] | 40% | 80% |  |  |  |  |  |  |  |  |  |  |  |  | Summer barley observed (%) (Summer barley; 28 days after application, 25 g of a.i./ha): 25%; Summer barley observed (%) (Summer barley; 28 days after application, 50 g of a.i./ha): 50% |
| CCOC(=O)OC1=C(c2c(CC)cc(C)cc2CC)C(=O)NC12CCC(OC)CC2 (single isomer, unassigned) [I-c-2] |  |  | 100% | 100% | 100% | 80% | 100% | 100% | 90% | 90% | 100% |  |  |  |  |
| CCOCC(=O)OC1=C(c2c(CC)cc(C)cc2CC)C(=O)NC12CCC(OC)CC2 (single isomer, unassigned) [I-b-2] | 95% |  | 100% | 100% |  | 70% | 100% |  |  |  |  | 100% |  |  | herbicidal effect, Avena fatua (Avena fatua [9]; 320 g of a.i./ha): 90%; herbicidal effect, Alopecurus (Alopecurus [5]; 320 g of a.i./ha): 100%; herbicidal effect, Setaria (Setaria viridis [6]; 320 g of a.i./ha): 100%; herbicidal effect, Veronica (Veronica [10]): 100%; herbicidal effect, Lolium (Lolium multiflorum [7]; 320 g of a.i./ha): 100%; nematicidal activity in % by the formation of galls (Meloidogyne incognita): ≥ 70% |
| C=CCOC(=O)OC1=C(c2c(CC)cc(C)cc2CC)C(=O)NC12CCC(OC)CC2 (stereo not shown) [I-c-1] |  |  | 100% | 100% | 100% |  | 100% | 100% | 100% | 100% | 100% | 90% | 35% | 60% | herbicidal effect, Avena fatua (Avena fatua [9]; 80 g of a.i./ha): 60% |
| CCc1cc(C)cc(CC)c1C1=C(OC(=O)COC)C2(CCC(OC)CC2)NC1=O (stereo not shown) [I-b-1] |  | 90% | 100% | 100% |  | 80% | 100% |  |  |  |  | 100% |  |  |  |
| CCc1cc(C)cc(CC)c1C1=C(O)C2(CCC(OC)CC2)NC1=O (stereo not shown) [I-a-1] |  |  |  |  |  |  |  |  |  |  |  |  | 20% | 60% | Summer barley observed (%) (Summer barley; greenhouse, post-emergence, 50 g of a.i./ha): 93% |
